Results published in ChEMBL document CHEMBL3856242, “Bioactive diterpenoids from Trigonostemon chinensis: Structures, NO inhibitory activities, and interactions with iNOS” (Bioorg Med Chem Lett, 2016).

Experiments:
[1] = species on record: Mus musculus; experiment: Cytotoxicity against mouse BV2 cells at IC50 by MTT assay; type: toxicity, cell-based; conditions: bv-2
[2] = target: T1, Nitric oxide synthase, inducible (Mus musculus, UniProt P29477); experiment: Inhibition of iNOS in mouse BV2 cells assessed as inhibition of LPS-induced NO production after 20 hrs by Griess reaction; type: cell-based, BV-2
T1 sequence (P29477 whole entry): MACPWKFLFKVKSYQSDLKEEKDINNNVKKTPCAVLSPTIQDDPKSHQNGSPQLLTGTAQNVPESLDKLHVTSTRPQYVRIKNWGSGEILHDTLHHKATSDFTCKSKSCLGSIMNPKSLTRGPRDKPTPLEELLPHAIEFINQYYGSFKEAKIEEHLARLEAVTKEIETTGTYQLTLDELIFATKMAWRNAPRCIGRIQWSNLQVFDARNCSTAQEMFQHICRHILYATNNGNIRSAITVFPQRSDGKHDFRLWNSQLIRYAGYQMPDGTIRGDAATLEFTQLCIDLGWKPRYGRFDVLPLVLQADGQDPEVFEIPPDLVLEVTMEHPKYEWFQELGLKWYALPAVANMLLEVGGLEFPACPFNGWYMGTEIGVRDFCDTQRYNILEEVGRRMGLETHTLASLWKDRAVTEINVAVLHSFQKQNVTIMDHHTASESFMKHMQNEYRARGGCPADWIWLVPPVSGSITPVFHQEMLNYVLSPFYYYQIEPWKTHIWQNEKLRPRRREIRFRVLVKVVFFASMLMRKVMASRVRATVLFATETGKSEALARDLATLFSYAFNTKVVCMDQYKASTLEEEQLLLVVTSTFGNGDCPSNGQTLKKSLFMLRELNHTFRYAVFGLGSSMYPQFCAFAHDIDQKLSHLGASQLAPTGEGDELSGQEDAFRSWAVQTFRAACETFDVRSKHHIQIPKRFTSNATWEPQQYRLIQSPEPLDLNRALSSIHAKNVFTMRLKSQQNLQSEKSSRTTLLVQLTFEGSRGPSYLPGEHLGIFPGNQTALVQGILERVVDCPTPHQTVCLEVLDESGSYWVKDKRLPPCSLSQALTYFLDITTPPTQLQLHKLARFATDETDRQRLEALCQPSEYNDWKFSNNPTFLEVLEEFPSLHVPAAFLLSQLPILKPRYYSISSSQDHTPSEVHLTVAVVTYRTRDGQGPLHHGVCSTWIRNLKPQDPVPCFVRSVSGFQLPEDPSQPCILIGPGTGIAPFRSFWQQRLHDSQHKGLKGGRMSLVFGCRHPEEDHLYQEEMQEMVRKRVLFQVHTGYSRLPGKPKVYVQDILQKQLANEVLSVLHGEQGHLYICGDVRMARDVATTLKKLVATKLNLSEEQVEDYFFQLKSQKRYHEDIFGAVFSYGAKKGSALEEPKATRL

| Compound | Activity [1] | IC50 [2] |
| --- | --- | --- |
| CSC(=N)N.O=S(=O)(O)O | Non-Toxic | 1.8 µM |
| C=C(C)[C@@]1(OC(C)=O)[C@H](OC(C)=O)[C@@H]2[C@H](OC(C)=O)[C@@]3(C)O[C@@]4([C@@H]3OC(=O)c3ccccc3)[C@@H](OC(C)=O)[C@@H](C)C[C@H]4[C@@]2(O)[C@H](C)[C@@H]1OC(=O)c1ccccc1 | Non-Toxic | 7.5 µM |
| Cc1cc2c(cc1O)[C@@]1(C)CC[C@H](O)C(C)(C)[C@@H]1CC2 | Non-Toxic | 5.9 µM |
| C=C(C)[C@@]1(O)[C@@H]2OC3(c4ccccc4)O[C@H]1[C@@H](C)[C@@]1(O3)[C@H]2[C@H](O)[C@@](C)(OC(=O)c2ccccc2)[C@@H](OC(C)=O)[C@@]2(O)[C@H]1C[C@H](C)[C@@H]2O | Non-Toxic | > 30 µM |
| C=C(C)[C@@]1(OC(=O)c2ccccc2)[C@H](OC(C)=O)[C@@H]2[C@H](OC(C)=O)[C@@]3(C)O[C@@]4([C@@H]3OC(=O)c3ccccc3)[C@@H](OC(C)=O)[C@@H](C)C[C@H]4[C@@]2(O)[C@H](C)[C@@H]1OC(C)=O | Non-Toxic | 13.4 µM |
| Cc1cc2c(cc1O)C=C1CC[C@H](O)C(C)(C)[C@@H]1CC2 | Non-Toxic | 3.8 µM |
| C=C(C)[C@@]1(O)[C@@H]2OC3(c4ccccc4)O[C@H]1[C@@H](C)[C@@]1(O3)[C@H]2[C@H](OC(C)=O)[C@@](C)(OC(=O)c2ccccc2)[C@@H](OC(C)=O)[C@@]2(O)[C@H]1C[C@H](C)[C@@H]2O | Non-Toxic | 10.2 µM |
